Reference: patent publication US10253002B2, “Compounds and methods of treating infections” (Neoculi Pty Ltd., priority 2013, dated 2019)
Each block holds one molecule with its values, some of them ahead of it.

Assays:
Test in all cases: Broth microdilution MIC, Example 7 (NCL812 and analogues)
Pseudomonas aeruginosa = type: cell-based; details: 24 hours
MRSA = type: cell-based, Staphylococcus aureus; details: for activity against MRSA among analogues: MIC testing, two MRSA strains
Protocol: (§1) Minimum inhibitory concentrations (μg/ml) were determined using the broth microdilution method recommended by the Clinical and Laboratory Standards Institute (CLSI). MIC breakpoints were determined by visual assessment and then confirmed using an ELISA plate reader, measuring absorbance levels at 600 nm. Bacterial growth (turbidity) in the wells with antimicrobial was compared with the amount of growth (turbidity) in the growth-control well (containing no antimicrobial). All isolates were tested in duplicate, if there was a difference of greater than one two-fold dilution in the results, the test was repeated a third time. The purity of the isolates was closely monitored during testing by subculturing the prepared bacterial inoculum onto SBA (sheep blood agar). […] The MIC50, MIC20 and MIC range (minimum and maximum) were calculated for each of the bacterial groups.
(§2) MICs were determined against two MRSA strains, two VRE strains and one strain each of E. coli and Pseudomonas aeruginosa.

VRE = type: cell-based, Enterococcus spp.; details: for activity against VRE among analogues: MIC testing, two VRE strains
Protocol: as §1, §2

Escherichia coli = type: cell-based; details: 24 hours
[1] = P. aeruginosa, duplicate lines per compound
[2] = MRSA 1, 24 hours, duplicate lines per compound
[3] = MRSA 2, 24 hours, duplicate lines per compound
[4] = VRE 1, 24 hours, duplicate lines per compound
[5] = VRE 2, 24 hours, duplicate lines per compound
[6] = E. coli, duplicate lines per compound
[7] = isolate MRSA 1, 24 hours, 1st and 2nd replicate rows
[8] = isolate MRSA 2, 24 hours, 1st and 2nd replicate rows
[9] = isolate VRE 1, 24 hours, 1st and 2nd replicate rows
[10] = isolate VRE 2, 24 hours, 1st and 2nd replicate rows

SMILES: Cl.N=C(NN=Cc1cccc(C(=O)O)c1)NN=Cc1cccc(C(=O)O)c1 [NCL098]
MIC (μg/ml) at 24 hours, P. aeruginosa (Pseudomonas aeruginosa; [1]): >128 µg/mL | MIC (μg/ml) at 24 hours, MRSA 1 (MRSA; [2]): >128 µg/mL | MIC (μg/ml) at 24 hours, MRSA 2 (MRSA; [3]): >128 µg/mL | MIC (μg/ml) at 24 hours, VRE 1 (VRE; [4]): >128 µg/mL | MIC (μg/ml) at 24 hours, VRE 2 (VRE; [5]): >128 µg/mL | MIC (μg/ml) at 24 hours, E. coli (Escherichia coli; [6]): >128 µg/mL

SMILES: N#Cc1cccc(/C=N/NC(=S)N/N=C/c2cccc(C#N)c2)c1 [NCL065]
MIC (μg/ml) at 24 hours, P. aeruginosa (Pseudomonas aeruginosa; 1st and 2nd replicate rows): >128 µg/mL | MIC (μg/ml) at 24 hours, MRSA 1 (MRSA; [7]): >128 µg/mL | MIC (μg/ml) at 24 hours, MRSA 2 (MRSA; [8]): >128 µg/mL | MIC (μg/ml) at 24 hours, VRE 1 (VRE; [9]): >128 µg/mL | MIC (μg/ml) at 24 hours, VRE 2 (VRE; [10]): >128 µg/mL | MIC (μg/ml) at 24 hours, E. coli (Escherichia coli; 1st and 2nd replicate rows): >128 µg/mL

SMILES: CC(=NNC(=N)NN=C(C)c1ccc(C(F)(F)F)cc1)c1ccc(C(F)(F)F)cc1.Cl [NCL061]
MIC (μg/ml) at 24 hours, P. aeruginosa (Pseudomonas aeruginosa; 1st and 2nd replicate rows): >128 µg/mL | MIC (μg/ml) at 24 hours, MRSA 1 (MRSA; [7]): >128 µg/mL | MIC (μg/ml) at 24 hours, MRSA 2 (MRSA; [8]): >128 µg/mL | activity against VRE among analogues (VRE): greatest activity | MIC (μg/ml) at 24 hours, VRE 1 (VRE; [9]): >128 µg/mL | MIC (μg/ml) at 24 hours, VRE 2 (VRE; [10]): 8 µg/mL | MIC (μg/ml) at 24 hours, E. coli (Escherichia coli; 1st and 2nd replicate rows): >128 µg/mL

SMILES: CCCCc1ccc(C=NNC(=N)NN=Cc2ccc(CCCC)cc2)cc1.Cl [NCL136]
activity against MRSA among analogues (MRSA): greatest activity | activity against VRE among analogues (VRE): greatest activity

SMILES: Cl.N=C(N/N=C/c1cccc([N+](=O)[O-])c1)N/N=C/c1cccc([N+](=O)[O-])c1 [NCL109]
MIC (μg/ml) at 24 hours, P. aeruginosa (Pseudomonas aeruginosa; [1]): >128 µg/mL | MIC (μg/ml) at 24 hours, MRSA 1 (MRSA; [2]): >128 µg/mL | MIC (μg/ml) at 24 hours, MRSA 2 (MRSA; [3]): >128 µg/mL | MIC (μg/ml) at 24 hours, VRE 1 (VRE; [4]): >128 µg/mL | MIC (μg/ml) at 24 hours, VRE 2 (VRE; [5]): >128 µg/mL | MIC (μg/ml) at 24 hours, E. coli (Escherichia coli; [6]): >128 µg/mL

SMILES: NC(=O)N/N=C/c1cccc(F)c1 [NCL057]
MIC (μg/ml) at 24 hours, P. aeruginosa (Pseudomonas aeruginosa; 1st and 2nd replicate rows): >128 µg/mL | MIC (μg/ml) at 24 hours, MRSA 1 (MRSA; [7]): >128 µg/mL | MIC (μg/ml) at 24 hours, MRSA 2 (MRSA; [8]): >128 µg/mL | MIC (μg/ml) at 24 hours, VRE 1 (VRE; [9]): >128 µg/mL | MIC (μg/ml) at 24 hours, VRE 2 (VRE; [10]): >128 µg/mL | MIC (μg/ml) at 24 hours, E. coli (Escherichia coli; 1st and 2nd replicate rows): >128 µg/mL

SMILES: C#Cc1cccc(C=NNC(=N)NN=Cc2cccc(C#C)c2)c1.Cl [NCL126]
activity against VRE among analogues (VRE): greatest activity

SMILES: Cl.N=C(NN=C(c1ccc(Cl)cc1O)C1CCCC1)NN=C(c1ccc(Cl)cc1O)C1CCCC1 [NCL159]
activity against MRSA among analogues (MRSA): greatest activity | activity against VRE among analogues (VRE): greatest activity

SMILES: C/C(=N\Nc1cc(N/N=C(\C)c2ccc(Cl)cc2)ncn1)c1ccc(Cl)cc1 [NCL178]
activity against MRSA among analogues (MRSA): greatest activity | activity against VRE among analogues (VRE): greatest activity

SMILES: Cl.N=C(N/N=C/c1ccc(Cl)nc1)N/N=C/c1ccc(Cl)nc1 [NCL175]
activity against VRE among analogues (VRE): greatest activity

SMILES: CC(Nc1cc(Cl)nc(N)n1)c1ccccc1 (stereo not drawn) [NCL182]
activity against MRSA among analogues (MRSA): greatest activity | activity against VRE among analogues (VRE): greatest activity

SMILES: C/C(=N\NC(=N)N)c1ccc(Cl)cc1.Cl [NCL191]
activity against MRSA among analogues (MRSA): greatest activity | activity against VRE among analogues (VRE): greatest activity

SMILES: Cl.N=C(NN=Cc1ccc(O)cc1)NN=Cc1ccc(O)cc1 [NCL151]
activity against MRSA among analogues (MRSA): greatest activity | activity against VRE among analogues (VRE): greatest activity

The remaining lines, values ahead:

MIC (μg/ml) at 24 hours, P. aeruginosa (Pseudomonas aeruginosa; [1]): >128 µg/mL | MIC (μg/ml) at 24 hours, MRSA 1 (MRSA; [2]): >128 µg/mL | MIC (μg/ml) at 24 hours, MRSA 2 (MRSA; [3]): >128 µg/mL | MIC (μg/ml) at 24 hours, VRE 1 (VRE; [4]): >128 µg/mL | MIC (μg/ml) at 24 hours, VRE 2 (VRE; [5]): >128 µg/mL | MIC (μg/ml) at 24 hours, E. coli (Escherichia coli; [6]): >128 µg/mL
SMILES: Cl.N=C(NN=Cc1cc(Cl)cc(Cl)c1)NN=Cc1cc(Cl)cc(Cl)c1 [NCL114]

MIC (μg/ml) at 24 hours, P. aeruginosa (Pseudomonas aeruginosa; P. aeruginosa): >128 µg/mL | MIC (μg/ml) at 24 hours, MRSA 1 (MRSA; MRSA 1, 24 hours): >128 µg/mL | MIC (μg/ml) at 24 hours, MRSA 2 (MRSA; MRSA 2, 24 hours): >128 µg/mL | MIC (μg/ml) at 24 hours, VRE 1 (VRE; VRE 1, 24 hours): >128 µg/mL | MIC (μg/ml) at 24 hours, VRE 2 (VRE; VRE 2, 24 hours): >128 µg/mL | MIC (μg/ml) at 24 hours, E. coli (Escherichia coli; E. coli): >128 µg/mL
SMILES: Nc1nc(N/N=C/c2cccc(O)c2)nc(N/N=C/c2cccc(O)c2)n1 [NCL209]

MIC (μg/ml) at 24 hours, P. aeruginosa (Pseudomonas aeruginosa; P. aeruginosa): >128 µg/mL | MIC (μg/ml) at 24 hours, MRSA 1 (MRSA; MRSA 1, 24 hours): >128 µg/mL | MIC (μg/ml) at 24 hours, MRSA 2 (MRSA; MRSA 2, 24 hours): >128 µg/mL | MIC (μg/ml) at 24 hours, VRE 1 (VRE; VRE 1, 24 hours): >128 µg/mL | MIC (μg/ml) at 24 hours, VRE 2 (VRE; VRE 2, 24 hours): >128 µg/mL | MIC (μg/ml) at 24 hours, E. coli (Escherichia coli; E. coli): >128 µg/mL
SMILES: NC(=N/N=C/c1ccc(Cl)cc1)N(/N=C/c1ccc(Cl)cc1)C(=O)NCc1ccco1 [NCL229]

MIC (μg/ml) at 24 hours, P. aeruginosa (Pseudomonas aeruginosa; P. aeruginosa): >128 µg/mL | MIC (μg/ml) at 24 hours, MRSA 1 (MRSA; MRSA 1, 24 hours): >128 µg/mL | MIC (μg/ml) at 24 hours, MRSA 2 (MRSA; MRSA 2, 24 hours): >128 µg/mL | MIC (μg/ml) at 24 hours, VRE 1 (VRE; VRE 1, 24 hours): >128 µg/mL | MIC (μg/ml) at 24 hours, VRE 2 (VRE; VRE 2, 24 hours): >128 µg/mL | MIC (μg/ml) at 24 hours, E. coli (Escherichia coli; E. coli): >128 µg/mL
SMILES: CCCCCCNC(=O)N(N=Cc1ccc(Cl)cc1)C(N)=NN=Cc1ccc(Cl)cc1 [NCL228]

MIC (μg/ml) at 24 hours, P. aeruginosa (Pseudomonas aeruginosa; [1]): >128 µg/mL | MIC (μg/ml) at 24 hours, MRSA 1 (MRSA; [2]): 128 µg/mL | MIC (μg/ml) at 24 hours, MRSA 2 (MRSA; [3]): 128 µg/mL | MIC (μg/ml) at 24 hours, VRE 1 (VRE; [4]): >128 µg/mL | MIC (μg/ml) at 24 hours, VRE 2 (VRE; [5]): >128 µg/mL | MIC (μg/ml) at 24 hours, E. coli (Escherichia coli; [6]): >128 µg/mL
SMILES: COc1ccc(C=CC=NNC(=N)NN=CC=Cc2ccc(OC)cc2)cc1.Cl [NCL 150]

MIC (μg/ml) at 24 hours, P. aeruginosa (Pseudomonas aeruginosa; [1]): >128 µg/mL | MIC (μg/ml) at 24 hours, MRSA 1 (MRSA; [2]): 64 µg/mL | MIC (μg/ml) at 24 hours, MRSA 2 (MRSA; [3]): 128 µg/mL | MIC (μg/ml) at 24 hours, VRE 1 (VRE; [4]): 32 µg/mL | MIC (μg/ml) at 24 hours, VRE 2 (VRE; [5]): 128 µg/mL | MIC (μg/ml) at 24 hours, E. coli (Escherichia coli; [6]): >128 µg/mL
SMILES: CCCCc1ccc(C=NNC(=N)NN=Cc2ccc(CCCC)cc2)cc1.Cl [NCL 136]
